Paper doi:10.1101/2021.09.30.462449v1 (biorxiv, 2021)

Experiments:
Test in all cases: biochemical
Conditions in all cases: read-out: % inhibition mean (Lanthascreen)
MAP2K5 (MEK5) = MAP2K5 (MEK5) (Homo sapiens, UniProt Q13163)
AMPK (A1/B1/G3) = AMPK (A1/B1/G3) (Homo sapiens, UniProt Q13131)
CDK13/cyclin K = CDK13/cyclin K (Homo sapiens, UniProt Q14004)
TEK (TIE2) R849W = TEK (TIE2) R849W (Homo sapiens, UniProt Q02763, R849W)
MAP3K14 (NIK) = MAP3K14 (NIK) (Homo sapiens, UniProt Q99558)
CDK3/cyclin E1 = CDK3/cyclin E1 (Homo sapiens, UniProt Q00526)
ABL1 H396P = ABL1 H396P (Homo sapiens, UniProt P00519, H396P)
TGFBR1 (ALK5) = TGFBR1 (ALK5) (Homo sapiens, UniProt P36897)
TESK2 = TESK2 (Homo sapiens, UniProt Q96S53)
MAP2K6 (MKK6) = MAP2K6 (MKK6) (Homo sapiens, UniProt P52564)
MAP3K10 (MLK2) = MAP3K10 (MLK2) (Homo sapiens, UniProt Q02779)
ERN2 = ERN2 (Homo sapiens, UniProt Q76MJ5)
ACVR1 (ALK2) R206H = ACVR1 (ALK2) R206H (Homo sapiens, UniProt Q04771, R206H)
DDR2 N456S = DDR2 N456S (Homo sapiens, UniProt Q16832, N456S)
BRAF = BRAF (Homo sapiens, UniProt P15056)
PRKACG (PRKAC gamma) = PRKACG (PRKAC gamma) (Homo sapiens, UniProt P22612)
ACVRL1 (ALK1) = ACVRL1 (ALK1) (Homo sapiens, UniProt P37023)
KIT N822K = KIT N822K (Homo sapiens, UniProt P10721, N822K)
ULK3 = ULK3 (Homo sapiens, UniProt Q6PHR2)
MYO3B (MYO3 beta) = MYO3B (MYO3 beta) (Homo sapiens, UniProt Q8WXR4)
BMPR1A (ALK3) = BMPR1A (ALK3) (Homo sapiens, UniProt P36894)
MAP2K4 (MEK4) = MAP2K4 (MEK4) (Homo sapiens, UniProt P45985)
EIF2AK2 (PKR) = EIF2AK2 (PKR) (Homo sapiens, UniProt P19525)
CDK14 (PFTK1)/cyclin Y = CDK14 (PFTK1)/cyclin Y (Homo sapiens, UniProt O94921)
MKNK2 (MNK2) = MKNK2 (MNK2) (Homo sapiens, UniProt Q9HBH9)
STK38L (NDR2) = STK38L (NDR2) (Homo sapiens, UniProt Q9Y2H1)
[1] = target: MAP3K7/MAP3K7IP1 (TAK1-TAB1) (Homo sapiens, UniProt O43318)
EPHA6 = EPHA6 (Homo sapiens, UniProt Q9UF33)
Sequence of EPHA6 (Q9UF33 whole entry): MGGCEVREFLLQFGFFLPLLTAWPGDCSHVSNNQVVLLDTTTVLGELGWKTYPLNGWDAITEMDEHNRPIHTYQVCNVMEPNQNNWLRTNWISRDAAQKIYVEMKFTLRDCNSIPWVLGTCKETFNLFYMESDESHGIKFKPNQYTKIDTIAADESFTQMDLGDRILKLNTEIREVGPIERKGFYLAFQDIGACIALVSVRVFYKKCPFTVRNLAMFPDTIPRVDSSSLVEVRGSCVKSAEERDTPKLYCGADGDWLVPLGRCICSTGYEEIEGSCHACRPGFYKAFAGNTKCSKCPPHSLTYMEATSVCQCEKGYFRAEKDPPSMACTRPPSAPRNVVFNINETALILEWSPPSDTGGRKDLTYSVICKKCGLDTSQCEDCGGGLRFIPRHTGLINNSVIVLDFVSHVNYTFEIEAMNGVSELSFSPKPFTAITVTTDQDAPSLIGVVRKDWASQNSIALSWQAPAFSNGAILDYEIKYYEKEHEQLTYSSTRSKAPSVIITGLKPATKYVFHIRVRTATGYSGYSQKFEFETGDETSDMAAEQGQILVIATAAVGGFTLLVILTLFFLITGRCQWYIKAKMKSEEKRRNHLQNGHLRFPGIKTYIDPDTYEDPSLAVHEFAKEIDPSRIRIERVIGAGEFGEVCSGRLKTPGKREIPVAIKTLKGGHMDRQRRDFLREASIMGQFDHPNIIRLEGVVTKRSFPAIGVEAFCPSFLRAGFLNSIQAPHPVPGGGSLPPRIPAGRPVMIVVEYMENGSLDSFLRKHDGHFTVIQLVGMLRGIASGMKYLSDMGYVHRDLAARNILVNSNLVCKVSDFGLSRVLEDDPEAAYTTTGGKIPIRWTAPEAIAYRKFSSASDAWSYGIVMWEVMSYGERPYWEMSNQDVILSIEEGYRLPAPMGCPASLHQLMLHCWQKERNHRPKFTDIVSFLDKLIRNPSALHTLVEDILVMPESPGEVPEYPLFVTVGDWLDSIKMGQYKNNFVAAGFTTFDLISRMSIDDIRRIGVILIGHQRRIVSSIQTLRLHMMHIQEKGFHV

Sequence of BMPR1A (ALK3) (P36894 whole entry): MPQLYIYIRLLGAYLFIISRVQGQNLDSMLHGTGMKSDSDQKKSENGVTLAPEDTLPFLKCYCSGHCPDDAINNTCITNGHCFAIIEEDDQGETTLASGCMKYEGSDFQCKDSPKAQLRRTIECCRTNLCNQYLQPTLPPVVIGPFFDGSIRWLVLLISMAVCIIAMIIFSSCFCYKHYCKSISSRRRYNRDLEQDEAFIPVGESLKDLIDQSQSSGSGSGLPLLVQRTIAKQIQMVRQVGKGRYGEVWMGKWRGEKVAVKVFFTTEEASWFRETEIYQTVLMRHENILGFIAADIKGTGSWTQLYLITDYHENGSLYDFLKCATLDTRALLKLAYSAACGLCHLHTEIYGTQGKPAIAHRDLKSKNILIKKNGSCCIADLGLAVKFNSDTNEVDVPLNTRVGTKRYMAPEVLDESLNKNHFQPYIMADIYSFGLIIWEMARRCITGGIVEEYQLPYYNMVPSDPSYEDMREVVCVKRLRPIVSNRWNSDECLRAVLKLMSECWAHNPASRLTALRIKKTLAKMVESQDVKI
Sequence of MYO3B (MYO3 beta) (Q8WXR4 whole entry): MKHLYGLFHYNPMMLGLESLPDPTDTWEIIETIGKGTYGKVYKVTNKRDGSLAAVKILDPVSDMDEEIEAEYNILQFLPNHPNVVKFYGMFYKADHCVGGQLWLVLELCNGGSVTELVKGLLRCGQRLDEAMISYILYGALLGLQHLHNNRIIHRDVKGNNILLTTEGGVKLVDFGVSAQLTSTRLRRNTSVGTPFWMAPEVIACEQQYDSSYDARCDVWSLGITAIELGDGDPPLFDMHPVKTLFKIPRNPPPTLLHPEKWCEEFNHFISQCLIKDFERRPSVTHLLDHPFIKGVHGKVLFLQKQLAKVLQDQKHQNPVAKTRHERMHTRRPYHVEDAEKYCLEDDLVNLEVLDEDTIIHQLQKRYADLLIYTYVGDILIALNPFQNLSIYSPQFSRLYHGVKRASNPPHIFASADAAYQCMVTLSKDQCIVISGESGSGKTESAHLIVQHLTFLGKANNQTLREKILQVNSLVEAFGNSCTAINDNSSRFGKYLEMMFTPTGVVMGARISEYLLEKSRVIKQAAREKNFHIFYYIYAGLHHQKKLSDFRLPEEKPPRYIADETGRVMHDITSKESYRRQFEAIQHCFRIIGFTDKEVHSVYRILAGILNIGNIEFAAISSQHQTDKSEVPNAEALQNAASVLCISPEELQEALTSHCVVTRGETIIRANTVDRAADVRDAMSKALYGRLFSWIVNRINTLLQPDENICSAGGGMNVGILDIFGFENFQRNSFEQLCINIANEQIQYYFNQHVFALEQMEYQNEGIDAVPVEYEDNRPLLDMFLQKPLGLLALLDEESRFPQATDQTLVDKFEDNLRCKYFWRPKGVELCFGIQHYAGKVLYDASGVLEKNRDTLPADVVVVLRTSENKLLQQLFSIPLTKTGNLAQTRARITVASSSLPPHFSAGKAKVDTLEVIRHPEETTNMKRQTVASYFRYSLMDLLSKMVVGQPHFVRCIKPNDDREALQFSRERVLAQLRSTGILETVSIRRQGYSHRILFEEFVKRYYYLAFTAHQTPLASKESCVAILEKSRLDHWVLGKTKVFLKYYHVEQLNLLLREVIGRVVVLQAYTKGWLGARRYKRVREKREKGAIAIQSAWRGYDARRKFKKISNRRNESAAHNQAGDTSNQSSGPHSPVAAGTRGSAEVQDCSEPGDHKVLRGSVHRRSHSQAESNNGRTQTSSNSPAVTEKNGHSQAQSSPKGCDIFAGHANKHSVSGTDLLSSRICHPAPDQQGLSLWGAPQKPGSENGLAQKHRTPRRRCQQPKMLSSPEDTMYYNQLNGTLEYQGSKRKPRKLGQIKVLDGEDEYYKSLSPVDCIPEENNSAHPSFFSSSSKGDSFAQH
Sequence of MAP2K5 (MEK5) (Q13163 whole entry): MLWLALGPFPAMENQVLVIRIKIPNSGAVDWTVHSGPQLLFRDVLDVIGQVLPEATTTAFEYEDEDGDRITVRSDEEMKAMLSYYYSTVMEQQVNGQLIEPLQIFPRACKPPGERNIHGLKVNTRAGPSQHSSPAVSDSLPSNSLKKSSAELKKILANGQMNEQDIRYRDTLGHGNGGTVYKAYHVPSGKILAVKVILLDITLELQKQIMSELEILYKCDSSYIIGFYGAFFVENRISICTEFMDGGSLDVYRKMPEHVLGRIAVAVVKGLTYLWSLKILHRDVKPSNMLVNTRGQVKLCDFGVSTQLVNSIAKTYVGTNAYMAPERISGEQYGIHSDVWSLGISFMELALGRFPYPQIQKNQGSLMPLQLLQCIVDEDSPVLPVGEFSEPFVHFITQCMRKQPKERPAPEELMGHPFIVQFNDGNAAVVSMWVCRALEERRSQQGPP
Sequence of DDR2 N456S (Q16832 whole entry N456S): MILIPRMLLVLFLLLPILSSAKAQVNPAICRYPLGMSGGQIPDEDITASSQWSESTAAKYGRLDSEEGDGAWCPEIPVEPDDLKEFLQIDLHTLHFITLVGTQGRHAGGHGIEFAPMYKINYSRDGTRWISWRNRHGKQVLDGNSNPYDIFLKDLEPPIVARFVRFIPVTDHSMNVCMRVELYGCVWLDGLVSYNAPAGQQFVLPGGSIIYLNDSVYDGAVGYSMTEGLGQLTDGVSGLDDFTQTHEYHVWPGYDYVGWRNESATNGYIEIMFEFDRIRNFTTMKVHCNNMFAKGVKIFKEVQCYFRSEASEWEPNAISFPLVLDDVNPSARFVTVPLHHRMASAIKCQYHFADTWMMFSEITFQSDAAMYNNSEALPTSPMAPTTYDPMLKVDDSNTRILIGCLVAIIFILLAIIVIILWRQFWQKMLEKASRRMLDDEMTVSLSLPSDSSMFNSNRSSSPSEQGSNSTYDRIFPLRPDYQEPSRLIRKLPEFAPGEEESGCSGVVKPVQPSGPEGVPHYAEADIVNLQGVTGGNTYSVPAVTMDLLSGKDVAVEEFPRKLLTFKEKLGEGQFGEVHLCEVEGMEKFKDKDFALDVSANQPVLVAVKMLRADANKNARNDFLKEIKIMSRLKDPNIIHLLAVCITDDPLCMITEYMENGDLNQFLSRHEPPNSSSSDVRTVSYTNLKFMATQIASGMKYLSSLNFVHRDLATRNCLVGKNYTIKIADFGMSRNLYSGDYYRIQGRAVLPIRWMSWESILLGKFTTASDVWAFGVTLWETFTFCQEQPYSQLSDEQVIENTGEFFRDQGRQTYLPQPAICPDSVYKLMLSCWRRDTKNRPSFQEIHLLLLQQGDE
Sequence of TESK2 (Q96S53 whole entry): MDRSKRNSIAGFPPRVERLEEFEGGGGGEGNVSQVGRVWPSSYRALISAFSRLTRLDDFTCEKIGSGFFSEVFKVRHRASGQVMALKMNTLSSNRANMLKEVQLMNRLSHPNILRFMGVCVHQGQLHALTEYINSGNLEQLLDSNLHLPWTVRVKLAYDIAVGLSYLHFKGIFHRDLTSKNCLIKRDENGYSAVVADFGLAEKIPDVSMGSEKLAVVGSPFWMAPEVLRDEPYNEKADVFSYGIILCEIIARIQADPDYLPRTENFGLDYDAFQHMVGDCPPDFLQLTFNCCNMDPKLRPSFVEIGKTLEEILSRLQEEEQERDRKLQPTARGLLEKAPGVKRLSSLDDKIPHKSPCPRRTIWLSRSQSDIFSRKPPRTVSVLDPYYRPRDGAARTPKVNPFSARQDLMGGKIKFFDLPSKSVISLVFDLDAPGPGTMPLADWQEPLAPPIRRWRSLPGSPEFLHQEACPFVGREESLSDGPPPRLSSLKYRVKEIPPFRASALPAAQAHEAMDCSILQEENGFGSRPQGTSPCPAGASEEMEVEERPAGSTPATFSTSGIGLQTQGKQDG

Molecule COc1ccc2nc3cc(Cl)ccc3c(Nc3cc(CN4CCCC4)c(O)c(CN4CCCC4)c3)c2n1 [Pyronaridine, 4-[(7-Chloro-2-methoxybenzo[b][1,5]naphthyridin-10-yl)amino]-2,6-bis(1-pyrrolidinylmethyl)phenol phosphate (1:4)] has an inhibition at 1 µM (MAP2K5 (MEK5)) of 1%, an inhibition at 1 µM (AMPK (A1/B1/G3)) of -1% and an inhibition at 1 µM (CDK13/cyclin K) of -13%. The inhibition at 1 µM (TEK (TIE2) R849W) was -3%, the inhibition at 1 µM (MAP3K14 (NIK)) was 2% and the inhibition at 1 µM (CDK3/cyclin E1) was 3%. The inhibition at 1 µM (ABL1 H396P) was 7%, the inhibition at 1 µM (TGFBR1 (ALK5)) was -4% and the inhibition at 1 µM (TESK2) was -3%. The inhibition at 1 µM (MAP2K6 (MKK6)) was 9%, the inhibition at 1 µM (MAP3K10 (MLK2)) was 0% and the inhibition at 1 µM (ERN2) was 6%. For the same molecule, the inhibition at 1 µM (ACVR1 (ALK2) R206H) was 2%, the inhibition at 1 µM (DDR2 N456S) was 17% and the inhibition at 1 µM (BRAF) was -11%. For the same molecule, the inhibition at 1 µM (PRKACG (PRKAC gamma)) was 2%, the inhibition at 1 µM (ACVRL1 (ALK1)) was 12% and the inhibition at 1 µM (KIT N822K) was 14%. The inhibition at 1 µM (ULK3) was 8%, the inhibition at 1 µM (MYO3B (MYO3 beta)) was 5% and the inhibition at 1 µM (BMPR1A (ALK3)) was 10%. It also gave an inhibition at 1 µM (MAP2K4 (MEK4)) of 1%, an inhibition at 1 µM (EIF2AK2 (PKR)) of 4% and an inhibition at 1 µM (CDK14 (PFTK1)/cyclin Y) of 14%. For the same molecule, the inhibition at 1 µM (MKNK2 (MNK2)) was 2%, the inhibition at 1 µM (STK38L (NDR2)) was -7% and the inhibition at 1 µM [1] was 1%. The inhibition at 1 µM (EPHA6) was -3%.
